In US12727599B2, “Use of cyclodextrins as agrochemical delivery system” (priority 2018, dated 2026):

How the values were obtained:
[1] = Complexation ability of cyclodextrins with chlorantraniliprole; format: physicochemical
[2] = Phase solubility isotherms of folpet-cyclodextrin complexes; format: physicochemical; conditions: with folpet
Method: The weight ratio of folpet to cyclodextrin was approximately 1:2. The content of folpet in the complex was determined by HPLC. Phase solubility isotherms were carried out for the folpet-cyclodextrin complexes.

In the case of OC[C@H]1O[C@@H]2O[C@H]3[C@H](O)[C@@H](O)[C@@H](O[C@H]4[C@H](O)[C@@H](O)[C@@H](O[C@H]5[C@H](O)[C@@H](O)[C@@H](O[C@H]6[C@H](O)[C@@H](O)[C@@H](O[C@H]7[C@H](O)[C@@H](O)[C@@H](O[C@H]1[C@H](O)[C@H]2O)O[C@@H]7CO)O[C@@H]6CO)O[C@@H]5CO)O[C@@H]4CO)O[C@@H]3CO [Alpha-cyclodextrin, alpha cyclodextrin], the complexation ability [1] is reported as “highest complexation ability”.
For “methyl-beta-cyclodextrin [RAMEB cyclodextrin]”, the complexation ability [2] was “highest complexation ability”.
